From patent US9687479B2, “Multisubstituted aromatic compounds as serine protease inhibitors” (VERSEON CORPORATION, priority 2013, dated 2017)

Legend:
[1] = target: Recombinant human tissue kallikrein (KLK1) (Homo sapiens (Human), UniProt P06870); assay: KLK1 kallikrein activity inhibition assay (Pro-Phe-Arg-AMC substrate); format: biochemical
Method: The KLK1 kallikrein activity reported herein (e.g., Tables B and C) was obtained as follows. Recombinant human tissue kallikrein (KLK1) was obtained from R&D Systems. […] KLK1 enzyme is activated by incubating 0.5 mg/ml KLK1 combined with 0.1 μg/ml thermolysin in a buffer of 0.05 M Tres (pH 7.5), 0.15 M NaCl, and 0.01 M CaCl2 for one hour at 37° C. The thermolysin is then deactivated by the addition of equal parts 20 mM 1, 10 phenanthroline solution in water. The activated KLK1 solution is then added to CHES buffer (0.05 M CHES, 0.15 M NaCl, 0.01 M CaCl2, pH 10) for a final concentration of 5 nM along with the test article and incubated for 10 minutes. […] Substrate activation is read 10 minutes after substrate addition using a Synergy H1 multifunction plate reader (Biotek) programmed with a 360 nm excitation wavelength and a 480 nm emission wavelength. Inhibitor response was established by adding test compound as ten point, three-fold serial dilutions, as known in the art. The IC50 was calculated by plotting the percent (%) inhibition against compound concentration and fitting the data to a constrained four parameter sigmoidal curve, as known in the art.

[2] = Pharmacokinetics in mice (i.v. and p.o.); format: in vivo, male CD-1 mice; details: male, CD-1, mouse, in vivo
Method: Each compound is administered intravenously (i.v.) as a single dose via tail vein or orally (p.o.) as a single dose via gastric gavage to male CD-1 mice of nominal weights between 20 g and 26 g. Nominal doses are 1 mg/kg and 5 mg/kg for i.v. and p.o., respectively. In some examples (dose type A), both p.o. and i.v. doses are prepared by dissolving the test compound in 5% dimethyl acetamide and diluted in tetraethylene glycol for a final concentration of 0.25 mg/mL. In other examples (dose type B), i.v. doses are prepared by dissolving test compounds in 20% dimethyl acetamide, 40% polyethylene glycol 300 and 40% phosphate buffered saline, and p.o. doses are prepared by dissolving test compounds in carboxymethyl cellulose suspension (1% by weight) in water and 2.5% dimethyl acetamide.
Animals are housed in standard holding cages with food and water available ad libitum except for animals used for p.o. dosing which are fasted overnight prior to dosing. Samples are taken in triplicate via cardiac puncture at times prior to dosing and at 0.083 (i.v. only), 0.25, 0.5, 1, 2, 4, 8, and 24 hours after administration. Plasma is obtained by centrifuge and stored frozen until analyzed by LC-MS/MS using a Shimadzu VP System HPLC coupled to a Applied Biosystems MDS SCIEX API 3000 triple quadrapole MS. Assay results are calibrated using reference samples prepared in a range between 1.5 and 5000 ng/mL.
Pharmacokinetic parameters are calculated from mean concentration values using a non-compartmental analysis as described in the following and as apparent to those of ordinary skill in the art. Half-lives (t1/2) and elimination rate constants (λ) are determined by log linear regression using equal weighting on the last three finite sample time points. Concentration at time zero (C0) for the i.v. data is established by the extrapolation of log linear regression using equal weighting on the first three sample time points. Area under the curve (AUC) values are calculated using linear trapezoidal integration. Systemic clearance (CL) is calculated as the ratio of dosage and AUC. […] Percent oral bioavailability (% F) is determined from the ratio of i.v. and p.o. AUC values weighted by dosage.

[3] = target: Human KLKB1 (Homo sapiens (Human), UniProt P03952); assay: KLKB1 kallikrein activity inhibition assay (chromogenic substrate S-2302); format: biochemical
Outline: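 Enzyme at a final 3 nM was assayed in 0.05 M Tris pH 7.4, 0.01 M NaCl and 0.2% PEG-8000 at room temperature, with compounds as ten-point threefold dilutions.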

[4] = Trans-corneal permeability in vitro across excised rabbit corneas (Franz chamber); format: in vitro ADME; details: excised rabbit cornea, compound in PBS, 37° C., four hours
Method: In this example, trans-corneal permeability of compounds are measured in-vitro across excised rabbit corneas. Excised rabbit cornea are acquired from Pel-Freez and delivered in DMEM culture media on ice overnight. The test apparatus is a curved 9 mm Franz chamber (Permegear) suitable for rabbit eyes. Test compound is prepared in PBS buffer. The compound solution is added to the donor chamber of the Franz chamber and the entire apparatus placed in an incubator at 37° C. for four hours. During incubation and at every subsequent hour, a sample is removed from the receiver chamber and analyzed by HPLC (Shimadzu Prominence) using a C18 column (Phenomenex 00E-4605-E0) in reverse phase with acetonitrile in water. The apparent permeability coefficient Papp (cm/s) is calculated as
where dM/dt is the flux (nmol/s) across the cell layers or cornea, A is the exposed surface area (cm^2) of the insert membrane of rabbit cornea, and C0 is the initial drug concentration (μM) in the donor compartment.

[5] = target: Human thrombin (Homo sapiens (Human), UniProt P00734); assay: Thrombin protease activity inhibition assay (chromogenic substrate S-2238); format: biochemical; details: 3 nM thrombin, 125 μM S-2238, 10 min pre-incubation, RT
Outline: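 Thrombin at 3 nM final in 0.05 M Tris pH 7.4, 0.015 M NaCl, 0.01% PEG-8000, at room temperature; compounds as ten-point three-fold dilutions.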

[6] = system: malignant breast tumors; details: treated mice, cited from earlier work

Sequence of Human KLKB1 (P03952 391-638 limits assumed): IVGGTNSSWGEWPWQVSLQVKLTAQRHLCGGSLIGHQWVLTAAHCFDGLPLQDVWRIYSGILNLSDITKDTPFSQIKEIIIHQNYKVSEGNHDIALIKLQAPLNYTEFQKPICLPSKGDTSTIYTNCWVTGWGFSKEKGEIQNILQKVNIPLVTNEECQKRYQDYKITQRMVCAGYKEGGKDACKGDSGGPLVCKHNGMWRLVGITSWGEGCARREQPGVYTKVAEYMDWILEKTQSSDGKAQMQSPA
Sequence of Human KLKB1 (P03952 20-390 partner limits assumed): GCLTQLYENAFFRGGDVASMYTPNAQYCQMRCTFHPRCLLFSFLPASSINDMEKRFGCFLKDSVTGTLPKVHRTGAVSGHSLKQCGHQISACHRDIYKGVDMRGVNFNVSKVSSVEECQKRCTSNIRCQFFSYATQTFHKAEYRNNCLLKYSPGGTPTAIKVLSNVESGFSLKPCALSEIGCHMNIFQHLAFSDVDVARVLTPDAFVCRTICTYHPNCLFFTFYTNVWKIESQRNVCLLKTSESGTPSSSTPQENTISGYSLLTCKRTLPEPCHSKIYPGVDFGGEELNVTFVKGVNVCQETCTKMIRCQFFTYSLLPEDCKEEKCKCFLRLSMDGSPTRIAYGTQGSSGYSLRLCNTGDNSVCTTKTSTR
Sequence of Recombinant human tissue kallikrein (KLK1) (P06870 25-262): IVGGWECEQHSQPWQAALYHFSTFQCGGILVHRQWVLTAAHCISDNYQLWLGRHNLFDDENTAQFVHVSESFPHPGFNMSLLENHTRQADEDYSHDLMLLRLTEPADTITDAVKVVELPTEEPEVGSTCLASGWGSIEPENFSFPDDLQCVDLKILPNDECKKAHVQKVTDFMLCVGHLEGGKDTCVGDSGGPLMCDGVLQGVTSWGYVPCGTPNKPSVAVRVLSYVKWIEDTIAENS

Compound | IC50 ([1]; Table B) [µM] | AUC ([2]; iv, 1 mg/kg) [ng·h/mL] | C0 ([2]; iv, 1 mg/kg) [ng/mL] | Vd ([2]; iv, 1 mg/kg) [L/kg] | clearance ([2]; iv, 1 mg/kg) [mL/min/kg] | half-life ([2]; iv, 1 mg/kg) [min] | AUC ([2]; po, 5 mg/kg) [ng·h/mL] | bioavailability ([2]; po, 5 mg/kg) [%] | half-life ([2]; po, 5 mg/kg) [min] | IC50 ([3]; Table B) [µM] | Papp at 4 h [4] [×10⁻⁶ cm/s] | IC50 [5] [µM] | IC50 ([1]; Table C) [µM] | IC50 ([3]; Table C) [µM] | reduction in tumor volume ([6]; at 4 weeks) [%] | reduced tumor cells in the blood and liver micrometastases [6]
O=C(c1ccoc1)n1nc(-c2ccc[nH]c2=O)cc1NCc1ccc(Cl)s1 [Cmpd 4, 3-(5-[(5-chlorothiophen-2-yl)methyl]amino-1-[(furan-3-yl)carbonyl]-1H-pyrazol-3-yl)-1,2-dihydropyridin-2-one] | 10 to 100 | 100 | 300 | 10 | 167 | 60 | 300 | 60 | 360 | 1 to 10 | 2.5 | – | – | – | – | –
Cn1cccc(-c2cc(NCc3ccc(Cl)s3)n(C(=O)c3ccoc3)n2)c1=O [Cmpd 23, 3-(5-[(5-chlorothiophen-2-yl)methyl]amino-1-[(furan-3-yl)carbonyl]-1H-pyrazol-3-yl)-1-methyl-1,2-dihydropyridin-2-one] | 10 to 100 | 100 | 400 | 5 | 133 | 30 | 80 | 10 | 36 | 1 to 10 | – | < 0.1 | – | – | – | –
O=C(c1ccoc1)n1nc(-c2cccn(Cc3ccccn3)c2=O)cc1NCc1ccc(Cl)s1 [Cmpd 25, 3-(5-[(5-chlorothiophen-2-yl)methyl]amino-1-[(furan-3-yl)carbonyl]-1H-pyrazol-3-yl)-1-(pyridin-2-ylmethyl)-1,2-dihydropyridin-2-one] | 10 to 100 | 40 | 100 | 6 | 167 | 18 | 10 | 9 | > 18 | 0.1 to 1 | – | < 0.1 | – | – | – | –
COc1ccccc1C(=O)n1nc(-c2ccccn2)nc1NCc1ccc(Cl)s1 [Cmpd 22] | – | – | – | – | – | – | – | – | – | – | 5.7 | – | 10 to 100 | < 0.1 | – | –
CCCCCCOC(=O)N=C(N)c1ccc(NCc2nc3cc(C(=O)N(CCC(=O)OCC)c4ccccn4)ccc3n2C)cc1 [dabigatran etexilate] | – | – | – | – | – | – | – | – | – | – | – | – | – | – | 50 | 50-60%
COc1ccccc1C(=O)n1nc(-c2cccn(Cc3cccnn3)c2=O)cc1NCc1ccc(Cl)s1 [Cmpd 138, 3-(5-[(5-chlorothiophen-2-yl)methyl]amino-1-[(2-methoxyphenyl)carbonyl]-1H-pyrazol-3-yl)-1-(pyridazin-3-ylmethyl)-1,2-dihydropyridin-2-one] | > 100 | – | – | – | – | – | – | – | – | 0.1 to 1 | – | < 0.1 | – | – | – | –
O=C(c1ccoc1)n1nc(-c2cccn(Cc3ccco3)c2=O)cc1NCc1ccc(Cl)s1 [Cmpd 26, 3-(5-[(5-chlorothiophen-2-yl)methyl]amino-1-[(furan-3-yl)carbonyl]-1H-pyrazol-3-yl)-1-(furan-2-ylmethyl)-1,2-dihydropyridin-2-one] | 10 to 100 | 50 | 200 | 5 | 167 | 18 | 20 | 8 | > 18 | 1 to 10 | – | < 0.1 | – | – | – | –
COc1ccccc1C(=O)n1nc(-c2cccn(CC(=O)N3CCOCC3)c2=O)cc1NCc1ccc(Cl)s1 [Cmpd 145, 3-(5-[(5-chlorothiophen-2-yl)methyl]amino-1-[(2-methoxyphenyl)carbonyl]-1H-pyrazol-3-yl)-1-[2-(morpholin-4-yl)-2-oxoethyl]-1,2-dihydropyridin-2-one] | > 100 | – | – | – | – | – | – | – | – | 1 to 10 | – | < 0.1 | – | – | – | –
